Assay [1] addresses T1, Cbl-b (Homo sapiens, UniProt Q13191).
T1 construct: Cbl-b-HiBit KI Jurkat Cells were purchased from Promega; host or cells: Cbl-b-HiBiT knock-in Jurkat cells
Description: Cbl-b Degradation Method A (FACS, anti-Cbl-b antibody staining). Format: cell-based. The following applies: Cbl-b-HiBit KI Jurkat Cells, incubated at least 20 hours; for DC50: half maximal degradation, read-out: Cbl-b Degredation Method A IC50; for Dmax: Jurkat, maximum degradation observed, read-out: Cbl-b Degredation Method A Dmax (%). In short, it runs like this: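 Readout is flow cytometry of fixed, permeabilized cells immunostained for Cbl-b (primary 1:200, AF488 secondary). Cells were Cbl-b-HiBit knock-in Jurkat, exposed to compound ≥20 h at 37 °C; half-maximal degradation concentration (DC50) and maximal degradation (Dmax) calculated relative to control.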

The target in assay [2] is T1, Cbl-b. Description: Cbl-b Degradation Method B (Nano-Glo HiBiT lytic detection). In kind it is cell-based. The following applies: Cbl-b-HiBit KI Jurkat Cells, incubated at least 6-24 hours; for DC50: half maximal degradation, read-out: Cbl-b Degredation Method B IC50; for Cbl-b Degredation Method B Dmax (%): maximum degradation observed. In short, it runs like this: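 An 11-point, 3-fold compound dilution was applied for 6-24 hours to Jurkat cells carrying HiBiT-tagged endogenous Cbl-b. Lytic HiBiT luminescence quantified residual protein. Outputs are DC50 and Dmax relative to DMSO control.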

T1 sequence (Q13191 whole entry): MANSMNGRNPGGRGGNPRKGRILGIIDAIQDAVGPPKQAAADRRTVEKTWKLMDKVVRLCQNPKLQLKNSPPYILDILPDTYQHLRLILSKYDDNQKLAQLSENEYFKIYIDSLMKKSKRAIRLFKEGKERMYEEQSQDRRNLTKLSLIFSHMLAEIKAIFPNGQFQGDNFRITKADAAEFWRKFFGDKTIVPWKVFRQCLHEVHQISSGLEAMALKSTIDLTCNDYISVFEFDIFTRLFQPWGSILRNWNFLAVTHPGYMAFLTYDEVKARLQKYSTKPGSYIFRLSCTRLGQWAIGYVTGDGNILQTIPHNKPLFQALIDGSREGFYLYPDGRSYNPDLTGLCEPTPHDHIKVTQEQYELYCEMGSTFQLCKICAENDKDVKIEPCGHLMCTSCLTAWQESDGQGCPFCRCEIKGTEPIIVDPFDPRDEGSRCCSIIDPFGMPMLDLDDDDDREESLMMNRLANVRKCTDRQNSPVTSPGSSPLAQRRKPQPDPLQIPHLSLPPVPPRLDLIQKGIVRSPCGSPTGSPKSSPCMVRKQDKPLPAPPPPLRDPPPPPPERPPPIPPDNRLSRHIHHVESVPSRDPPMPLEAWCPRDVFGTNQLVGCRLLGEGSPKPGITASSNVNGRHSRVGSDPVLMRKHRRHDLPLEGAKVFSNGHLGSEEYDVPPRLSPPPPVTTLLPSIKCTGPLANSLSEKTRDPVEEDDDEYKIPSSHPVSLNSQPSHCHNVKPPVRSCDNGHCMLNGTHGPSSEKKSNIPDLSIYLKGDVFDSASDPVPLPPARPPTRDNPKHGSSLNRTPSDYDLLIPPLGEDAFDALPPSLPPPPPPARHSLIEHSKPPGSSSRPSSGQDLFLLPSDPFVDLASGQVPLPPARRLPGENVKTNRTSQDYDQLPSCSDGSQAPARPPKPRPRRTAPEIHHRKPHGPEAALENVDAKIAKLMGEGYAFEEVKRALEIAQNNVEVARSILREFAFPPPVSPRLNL

Regarding `CC(C)n1c(=O)n(C2CCC(=O)NC2=O)c2cccc(N3CCC(O[C@H]4CC[C@H](CN5CCN(Cc6cc7c(c(C(F)(F)F)c6)CN(c6cccc([C@]8(Cc9nncn9C)C[C@@H](C#N)C8)c6)C7=O)C(C)(C)C5)CC4)CC3)c21` (stereo partly shown) [Example 302, (1r,3r)-3-(3-{6-[(2,2-dimethyl-4-{[(1r,4r)-4-({1-[1-(2,6-dioxopiperidin-3-yl)-2-oxo-3-(propan-2-yl)-2,3-dihydro-1H-1,3-benzodiazol-4-yl]piperidin-4-yl}oxy)cyclohexyl]methyl}piperazin-1-yl)methyl]-1-oxo-4-(trifluoromethyl)-2,3-dihydro-1H-isoindol-2-yl}phenyl)-3-[(4-methyl-4H-1,2,4-triazol-3-yl)methyl]cyclobutane-1-carbonitrile], on Cbl-b [1], the DC50 fell in the range of 50 to 500 nM and the Dmax is 35 to 70%. Further, on Cbl-b [2], the DC50 was 5 to 50 nM and the “Cbl-b Degredation Method B Dmax (%)” value is on record as “C (C ≤ 35)”.
Taken in the same sequence, the figures for `CC1c2nc(N3CCC(CN4CCC(CN5CCN(Cc6cc7c(c(C(F)(F)F)c6)CN(c6cccc([C@]8(Cc9nncn9C)C[C@@H](C#N)C8)c6)C7=O)C(C)(C)C5)CC4)CC3)ccc2C(=O)N1C1CCC(=O)NC1=O` (stereo partly shown) [Example 303, (1r,3r)-3-(3-{6-[(4-{[1-({1-[6-(2,6-dioxopiperidin-3-yl)-7-methyl-5-oxo-5H,6H,7H-pyrrolo[3,4-b]pyridin-2-yl]piperidin-4-yl}methyl)piperidin-4-yl]methyl}-2,2-dimethylpiperazin-1-yl)methyl]-1-oxo-4-(trifluoromethyl)-2,3-dihydro-1H-isoindol-2-yl}phenyl)-3-[(4-methyl-4H-1,2,4-triazol-3-yl)methyl]cyclobutane-1-carbonitrile] were 5 to 50 nM, 35 to 70%, below 5 nM and “C (C ≤ 35)”.
As to `CC1c2nc(N3CCC(CN4CCN(CC5CCN(Cc6cc7c(c(C(F)(F)F)c6)CN(c6cccc([C@]8(Cc9nncn9C)C[C@@H](C#N)C8)c6)C7=O)C6(CC6)C5)CC4)CC3)ccc2C(=O)N1C1CCC(=O)NC1=O` (stereo partly shown) [Example 310, (1r,3r)-3-(3-{6-[(7-{[4-({1-[6-(2,6-dioxopiperidin-3-yl)-7-methyl-5-oxo-5H,6H,7H-pyrrolo[3,4-b]pyridin-2-yl]piperidin-4-yl}methyl)piperazin-1-yl]methyl}-4-azaspiro[2.5]octan-4-yl)methyl]-1-oxo-4-(trifluoromethyl)-2,3-dihydro-1H-isoindol-2-yl}phenyl)-3-[(4-methyl-4H-1,2,4-triazol-3-yl)methyl]cyclobutane-1-carbonitrile], at Cbl-b [1], the DC50 is 5 to 50 nM and the Dmax was 35 to 70%. Further, at Cbl-b [2], the DC50 fell in the range of 5 to 50 nM and the “Cbl-b Degredation Method B Dmax (%)” value is recorded as “C (C ≤ 35)”.
Turning to `Cn1cnnc1CC1(c2cccc(N3Cc4c(cc(CN5CCN(C[C@H]6CC[C@H](OC7CCN(c8cccc9c8n(C8CC8)c(=O)n9C8CCC(=O)NC8=O)CC7)CC6)CC5(C)C)cc4C(F)(F)F)C3=O)c2)CC(C#N)C1` (stereo partly shown) [Example 312, (1r**,3r**)-3-(3-{6-[(2,2-dimethyl-4-{[(1r*,4r*)-4-({1-[3-cyclopropyl-1-(2,6-dioxopiperidin-3-yl)-2-oxo-2,3-dihydro-1H-1,3-benzodiazol-4-yl]piperidin-4-yl}oxy)cyclohexyl]methyl}piperazin-1-yl)methyl]-1-oxo-4-(trifluoromethyl)-2,3-dihydro-1H-isoindol-2-yl}phenyl)-3-[(4-methyl-4H-1,2,4-triazol-3-yl)methyl]cyclobutane-1-carbonitrile], on Cbl-b [1], the DC50 lay within 50 to 500 nM and the Dmax was 35 to 70%. For the same compound, at Cbl-b [2], the DC50 was below 5 nM and the “Cbl-b Degredation Method B Dmax (%)” value is “C (C ≤ 35)”.
For `Cn1cnnc1CC1(c2cccc(N3Cc4c(cc(CN5CCN(C[C@H]6CC[C@H](OC7CCN(c8cccc9c8ncn9C8CCC(=O)NC8=O)CC7)CC6)CC5(C)C)cc4C(F)(F)F)C3=O)c2)CC(C#N)C1` (stereo partly shown) [Example 314, (1r**,3r**)-3-(3-{6-[(2,2-dimethyl-4-{[(1r*,4r*)-4-({1-[1-(2,6-dioxopiperidin-3-yl)-1H-1,3-benzodiazol-4-yl]piperidin-4-yl}oxy)cyclohexyl]methyl}piperazin-1-yl)methyl]-1-oxo-4-(trifluoromethyl)-2,3-dihydro-1H-isoindol-2-yl}phenyl)-3-[(4-methyl-4H-1,2,4-triazol-3-yl)methyl]cyclobutane-1-carbonitrile], on Cbl-b [1], the DC50 fell in the range of 5 to 50 nM and the Dmax lay within 35 to 70%. Besides, on Cbl-b [2], the DC50 lay within 50 to 500 nM and the “Cbl-b Degredation Method B Dmax (%)” value is listed as “B (35 < B < 70)”.
Regarding `Cn1cnnc1CC1(c2cccc(N3Cc4c(cc(CN5CCN(C[C@H]6CC[C@H](OC7CCN(c8cccc9c8CC(=O)N9C8CCC(=O)NC8=O)CC7)CC6)CC5(C)C)cc4C(F)(F)F)C3=O)c2)CC(C#N)C1` (stereo partly shown) [Example 315, (1r**,3r**)-3-(3-{6-[(2,2-dimethyl-4-{[(1r*,4r*)-4-({1-[1-(2,6-dioxopiperidin-3-yl)-2-oxo-2,3-dihydro-1H-indol-4-yl]piperidin-4-yl}oxy)cyclohexyl]methyl}piperazin-1-yl)methyl]-1-oxo-4-(trifluoromethyl)-2,3-dihydro-1H-isoindol-2-yl}phenyl)-3-[(4-methyl-4H-1,2,4-triazol-3-yl)methyl]cyclobutane-1-carbonitrile], on Cbl-b [1], the DC50 lay in the range of 50 to 500 nM and the Dmax was 35 to 70%. Also, at Cbl-b [2], the DC50 is below 5 nM and the “Cbl-b Degredation Method B Dmax (%)” value was “C (C ≤ 35)”.
Consider `Cn1cnnc1CC1(c2cccc(N3Cc4c(cc(CN5CCN(C[C@H]6CC[C@H](OC7CCN(c8ccc9c(c8)CC(=O)N9C8CCC(=O)NC8=O)CC7)CC6)CC5(C)C)cc4C(F)(F)F)C3=O)c2)CC(C#N)C1` (stereo partly shown) [Example 316, (1r**,3r**)-3-(3-{6-[(2,2-dimethyl-4-{[(1r*,4r*)-4-({1-[1-(2,6-dioxopiperidin-3-yl)-2-oxo-2,3-dihydro-1H-indol-5-yl]piperidin-4-yl}oxy)cyclohexyl]methyl}piperazin-1-yl)methyl]-1-oxo-4-(trifluoromethyl)-2,3-dihydro-1H-isoindol-2-yl}phenyl)-3-[(4-methyl-4H-1,2,4-triazol-3-yl)methyl]cyclobutane-1-carbonitrile], for which, at Cbl-b [1], the DC50 lay in the range of 50 to 500 nM and the maximal degradation (Dmax) is above 70%. At Cbl-b [2], the DC50 was below 5 nM and the “Cbl-b Degredation Method B Dmax (%)” value is on record as “C (C ≤ 35)”.
In the same order, the values of `CC(C)n1c(=O)n(C2CCC(=O)NC2=O)c2cccc(N3CCC(O[C@H]4CC[C@H](CN5CCC6(CCN(Cc7cc8c(c(C(F)(F)F)c7)CN(c7cccc([C@]9(Cc%10nncn%10C)C[C@@H](C#N)C9)c7)C8=O)CC6)CC5)CC4)CC3)c21` (stereo partly shown) [Example 317, (1r,3r)-3-[(4-methyl-4H-1,2,4-triazol-3-yl)methyl]-3-(3-{1-oxo-6-[(9-{[(1r,4r)-4-({1-[1-(2,6-dioxopiperidin-3-yl)-2-oxo-3-(propan-2-yl)-2,3-dihydro-1H-1,3-benzodiazol-4-yl]piperidin-4-yl}oxy)cyclohexyl]methyl}-3,9-diazaspiro[5.5]undecan-3-yl)methyl]-4-(trifluoromethyl)-2,3-dihydro-1H-isoindol-2-yl}phenyl)cyclobutane-1-carbonitrile] are 50 to 500 nM, 35 to 70%, below 5 nM and “C (C ≤ 35)”.
`CC(C)n1c(=O)n(C2CCC(=O)NC2=O)c2ccc(N3CCC(O[C@H]4CC[C@H](CN5CCN(Cc6cc7c(c(C(F)(F)F)c6)CN(c6cccc(C8(Cc9nncn9C)CC(C#N)C8)c6)C7=O)C(C)(C)C5)CC4)CC3)c(F)c21` (stereo partly shown) [Example 318, (1r**,3r**)-3-(3-{6-[(2,2-dimethyl-4-{[(1r*,4r*)-4-({1-[1-(2,6-dioxopiperidin-3-yl)-4-fluoro-2-oxo-3-(propan-2-yl)-2,3-dihydro-1H-1,3-benzodiazol-5-yl]piperidin-4-yl}oxy)cyclohexyl]methyl}piperazin-1-yl)methyl]-1-oxo-4-(trifluoromethyl)-2,3-dihydro-1H-isoindol-2-yl}phenyl)-3-[(4-methyl-4H-1,2,4-triazol-3-yl)methyl]cyclobutane-1-carbonitrile]: on Cbl-b [1], the DC50 fell in the range of 50 to 500 nM and the Dmax lay within 35 to 70%. Moreover, at Cbl-b [2], the DC50 is below 5 nM and the “Cbl-b Degredation Method B Dmax (%)” value is on record as “C (C ≤ 35)”.
For `CC(C)n1c(=O)n(C2CCC(=O)NC2=O)c2cccc(N3CCC(O[C@H]4CC[C@H](CN5CCC6(CC5)CN(Cc5cc7c(c(C(F)(F)F)c5)CN(c5cccc([C@]8(Cc9nncn9C)C[C@@H](C#N)C8)c5)C7=O)C6)CC4)CC3)c21` (stereo partly shown) [Example 320, (1r,3r)-3-[(4-methyl-4H-1,2,4-triazol-3-yl)methyl]-3-(3-{1-oxo-6-[(7-{[(1r,4r)-4-({1-[1-(2,6-dioxopiperidin-3-yl)-2-oxo-3-(propan-2-yl)-2,3-dihydro-1H-1,3-benzodiazol-4-yl]piperidin-4-yl}oxy)cyclohexyl]methyl}-2,7-diazaspiro[3.5]nonan-2-yl)methyl]-4-(trifluoromethyl)-2,3-dihydro-1H-isoindol-2-yl}phenyl)cyclobutane-1-carbonitrile], on Cbl-b [1], the DC50 was 50 to 500 nM and the maximal degradation (Dmax) was above 70%. On Cbl-b [2], the DC50 was below 5 nM and the “Cbl-b Degredation Method B Dmax (%)” value was “C (C ≤ 35)”.

Values taken from patent publication US20260184710A1, “CASITAS B-LINEAGE LYMPHOMA PROTOONCOGENE B (CBL-B) DEGRADING COMPOUNDS AND ASSOCIATED METHODS OF USE” (Arvinas Operations, Inc., priority 2022, published 2026).
